According to ChEMBL document CHEMBL1127644, “Design of orally active, non-peptidic inhibitors of human leukocyte elastase” (J Med Chem, 1994):
Values belong to the compound of their own block, whether it stands above or below them. Activity calls are given as the source filed them. The calls are words filed in the database; no cut-off is given here.

Tests used:
[1] = tested on: Cricetinae gen. sp.; experiment: Inhibition of Human Leukocyte Elastase (HLE) induced lung hemorrhage in hamster at an oral dose of 20 mg/kg; […]; assay type: functional, organism-based; set-up: dose 20 mg/kg; details: Cricetulus griseus
[2] = Bioavailability in rat; assay type: ADME, organism-based; details: in vivo, read-out: Bioavailabiility
[3] = tested on: Cricetinae gen. sp.; experiment: Inhibition of Human Leukocyte Elastase (HLE) induced lung hemorrhage in hamster at an oral dose of 2.5 mg/kg; assay type: functional, Cricetulus griseus
[4] = Bioavailability was evaluated in dog; assay type: ADME, organism-based, Canis lupus familiaris; details: in vivo, read-out: Bioavailabiility
[5] = Bioavailability was evaluated in hamster; assay type: ADME, organism-based; details: cricetinae, in vivo; read-out: Bioavailabiility
[6] = tested on: Cricetinae gen. sp.; experiment: The compound was evaluated for effective dose after oral dosing; assay type: functional, Cricetulus griseus
[7] = tested on: Cricetinae gen. sp.; experiment: Inhibition of Human Leukocyte Elastase (HLE) induced lung hemorrhage in hamster at an oral dose of 20 mg/kg; assay type: functional, Cricetulus griseus
[8] = Partition coefficient (logP); assay type: physicochemical; details: octanol/water

Structure (SMILES): CC(C)C(NC(=O)Cn1c(-c2ccccc2)ccc(NC(=O)OCc2ccc(C(=O)O)cc2)c1=O)C(=O)C(F)(F)F (stereo not given)
inhibition [1]: inactive

bioavailability [2]: 62% | bioavailability [4]: 88% | bioavailability [5]: 77%
Structure (SMILES): CC(C)C(NC(=O)Cn1c(-c2ccc(F)cc2)ncc(N)c1=O)C(=O)C(F)(F)F (stereo not given)
inhibition in vivo at 2.5 mg/kg [3]: 43% | ED50 [6]: 7.5 mg/kg

Structure (SMILES): CC(C)C(NC(=O)Cn1c(-c2ccc(F)cc2)ncc(NC(=O)OCc2ccccc2)c1=O)C(=O)C(F)(F)F (stereo not given)
inhibition in vivo at 20 mg/kg [7]: 63%

Structure (SMILES): COC(=O)Nc1cnc(-c2ccc(F)cc2)n(CC(=O)NC(C(=O)C(F)(F)F)C(C)C)c1=O (stereo not given)
inhibition in vivo at 2.5 mg/kg [3]: 39%

logP [8]: > 4
Structure (SMILES): CC(C)C(NC(=O)Cn1c(-c2ccccc2)ccc(NC(=O)OCc2ccccc2)c1=O)C(=O)C(F)(F)F (stereo not given)
inhibition [1]: inactive
